Values belong to the molecule of their own block, whether it stands above or below them. Where no end group is shown, it is not given here.
What was measured:
[1] = test system: Schwann cell-astrocyte adhesion; test: Schwann cell-astrocyte adhesion assay (Dil-labelled Schwann cells on astrocyte monolayer, shaking platform 30 min); assay type: cell-based, rat
Experimental: The effect of a modulating agent on Schwann cell adhesion to astrocytes may generally be evaluated using a cell adhesion assay. Briefly, Schwann cells fluorescently labeled with Di-I may be plated onto an astrocytic surface (e.g., a glass coverslip coated with a monolayer of astrocytes) and incubated on a shaking platform (e.g., 25 rpm for 30 minutes) in the presence and absence of modulating agent (e.g., LRAHAVDING (SEQ ID NO: 21) at a concentration of 1 mg/mL). Cells may then be washed (e.g., in Hanks medium) to remove non-attached cells. The attached cells may then be fixed and counted (e.g., using a fluorescent microscope). In general, 1 mg/mL of a modulating agent results in an increase or decrease in cell adhesion of at least 50%. This assay evaluates the effect of a modulating agent on N-cadherin mediated cell adhesion.
In order to test whether the migratory behavior of Schwann cells on different cell types was a function of adhesivity to the substratum, Dil-labeled Schwann cells were plated onto either astrocytic, fibroblasts, Schwann cell or laminin surfaces. 20,000 Dil-labeled Schwann cells were placed in a 15 mm diameter well in 0.5 ml of medium over a 13 mm glass coverslip coated with laminin, or a complete monolayer of astrocytes, fibroblasts or Schwann cells and then placed onto a shaking platform (25 rpm) for 30 minutes in an incubator. The coverslips were washed three times in Hanks after 30 minutes to remove any non-attached cells and the remainder were fixed for 20 minutes in 4% paraformaldehyde. The number of Dil-labeled Schwann cells that were attached to the coverslip were counted using a Leitz Diaplan fluorescent microscope under rhodamine optics.
In order to reduce extracellular calcium, DMEM was replaced by S-MEM (Joklik's modification; Gibco) with 0.2 mM calcium chloride added or the calcium buffer EGTA (Sigma) was employed. Adhesion assays in the absence of external calcium were performed using Schwann cells and astrocytes. Either a low calcium solution (S-MEM in place of DMEM with 0.2 mM calcium chloride) or a calcium buffer (EGTA in a normal DMEM medium) was used in these assays. […] EGTA concentrations less than 1.3 mM had little effect upon Schwann cell migration whereas those above 1.8 mM caused disruption of the astrocytic monolayer (data not shown). Adhesion of Schwann cells to astrocytes in the presence of the standard DMEM based medium was taken as the control and assigned the normalized value of 1.0±0.03. Low calcium solutions reduced intercellular adhesion to 0.47±0.09 and the addition of 1.6 mM EGTA to DMEM reduced adhesion to 0.39±0.05 (FIG. 10A). […]

[2] = test system: Schwann cell migration on astrocytes; test: Micro-inverted-coverslip migration assay on astrocyte monolayers; assay type: cell-based, rat
Experimental: Schwann cell migration may generally be evaluated using a micro-inverted-coverslip assay. In this assay, a dense Schwann cell culture is established on coverslip fragments and Schwann cell migration away from the fragment edge is measured. Briefly, Schwann cells fluorescently labeled with Di-I may be plated on polylysine- and laminin-coated fragments of a glass coverslip and allowed to bind to the surface for 16-18 hours. Cells may then be washed (e.g., in Hanks medium) to remove non-attached cells, and then inverted, with cells facing downward onto an astrocyte-coated surface. Cultures are then incubated further for 2 days in the presence or absence of modulating agent (e.g., LRAHAVDING (SEQ ID NO: 21) at a concentration of 1 mg/mL) and fixed. The maximum migration distance from the edge of the coverslip fragment may then be measured. At a level of 1 mg/mL, modulating agent results in an increase or decrease in the maximum migration distance of at least 50%. This assay evaluates the effect of a modulating agent on N-cadherin mediated cell adhesion.
In order to assess the rates of Schwann cell migration on different surfaces, the micro-inverted-coverslip migration assay was employed. This is a variation of the technique first described by Fok-Seang et al., Dev. Biol. 171:1-15, 1995. Schwann cells fluorescently labeled with Di-I (25 μg/ml) were evenly plated onto polylysine and laminin coated fragments of glass coverslip (1×2 mm). After 16-18 hours, the pieces of glass coated with Di-I labeled Schwann cells were dipped into Hanks three times to remove any loosely attached cells and then inverted with cells facing downwards onto laminin-coated tissue culture surfaces or onto cell monolayers. These cultures were then incubated for a further two days and fixed for 20 minutes with 4% paraformaldehyde. The maximum migration distance was measured, and the number of cells in bands of 0.1 mm progressing outwards from the edge of the coverslip were counted.
In this assay, a dense Schwann cell culture is established on coverslip fragments and their migration away from its edge measured. The assay therefore measures the ability of Schwann cells to migrate on a surface, and their ability to migrate away from a confluent Schwann cell monolayer. The migration front of the foremost cells was measured, and the number of cells against distance of migration plotted. Schwann cell-laden fragments were placed on laminin to give a baseline migration rate on a favorable defined surface, and laminin controls were done for comparison on each assay.

[3] = peptide 1 mg/ml, adhesion in the absence of peptide = 1.0±0.05, mean±S.E.M.

Molecule: LRAHAVDING-NH2
Schwann cell-astrocyte adhesion, normalized [1, 3]: 0.38±0.07

Molecule: LRAHGVDING-NH2
Schwann cell-astrocyte adhesion, normalized [1, 3]: 0.78±0.10

Molecule: MRAHAVDING-NH2
Schwann cell-astrocyte adhesion, normalized [1, 3]: 0.39±0.04

concentrations causing disruption of the astrocytic monolayer ([2]; data not shown): above 1.8 mM
Molecule: O=C(O)CN(CCOCCOCCN(CC(=O)O)CC(=O)O)CC(=O)O [EGTA]
extent of Schwann cell migration upon astrocyte monolayers ([2]; EGTA 1.6 mM, control migration 0.25±0.03): 0.86 mm
concentrations with little effect upon Schwann cell migration ([2]; data not shown): less than 1.3 mM
optimal concentration for Schwann cell migration ([2]; various concentrations of EGTA tested (data not shown)): 1.6 mM
Schwann cell-astrocyte adhesion, normalized ([1]; 1.6 mM EGTA added to DMEM, standard DMEM control = 1.0±0.03): 0.39±0.05

Source: patent publication US7326686B2, “Compounds and methods for regulating cell adhesion” (Adherex Inc., priority 1997, dated 2008)
